Results published in US20250297152A1, “FLUORINATED SUBSTITUTED OLEFIN REFRIGERANTS AND METHODS OF COOLING ELECTRONICS” (Honeywell International Inc., priority 2024, published 2025).

Experiments:
[1] = type: physicochemical; settings: for BP: Table E1
Description: (§1) The boiling point (“BP”) and dielectric constant (“Dk”) of trans- and cis-secBuFO and trans- and cis-tBuFO were determined and the results are reported below in Table E1. The dielectric property of each of trans- and cis-secBuFO and trans- and cis-tBuFO was determined using the Agilent 85070 Dielectric Probe. All measurements were made at ambient pressure and room temperature (approximately 23° C.). Prior to making measurements, the system was calibrated from 1 GHz to 20 GHz with an open circuit, a short circuit, and DI water (@22.4° C.) standard. The result of the calibration is shown in the Table E1 below for DI H2O, and is consistent with DI water at 22.4° C. The accuracy of the probe is given as: Dielectric constant, er′=er′+/−0.05|er*| with er″=er″+/−0.05|er*| and (loss=er″/er′).

[2] = Dielectric constant (Agilent 85070 Dielectric Probe; ASTM D150-11); type: physicochemical; settings: for Dielectric Constant (20 GHz): Table 3, values understood as 'about'; for Calculated Dk at 20 GHz: Table E1, ambient pressure, room temperature (approximately 23° C.)
Description: “Dielectric Constant” means the dielectric constant as measured in accordance with ASTM D150-11 at room temperature at 20 giga hertz (GHz).
as §1

[3] = Toxicological screening study: in vivo acute oral toxicity and 4-hour acute inhalation toxicity; settings: acute oral 2,000 mg/kg/day; 4-hour acute inhalation at 18,375 ppm
Description: “Acceptable toxicity” means a fluid that has toxicity within acceptable limits. This is experimentally determined by a toxicological screening study to assess in vivo acute oral toxicity at a dosage of 2,000 mg/kg/day and 4-hour acute inhalation toxicity at a concentration of about 20,000 ppm.
A fluid including the trans isomer of the SecBuFO refrigerant was subjected experimentally a toxicological screening study to assess in vivo acute oral toxicity at a dosage of 2,000 mg/kg/day and 4-hour acute inhalation toxicity at a concentration of 18,375 ppm.

SMILES	Boiling point [1]	BP [1]	Dielectric Constant (20 GHz) [2]	Calculated Dk at 20 GHz [2]	toxicology screening study outcome [3]
F/C=C/C(F)(C(F)(F)F)C(F)(F)C(F)(F)F (stereo not drawn) [trans-secBuFO, trans-1,3,4,4,5,5,5-heptafluoro-3-(trifluoromethyl)pent-1-ene]	55.5-55.9 °C	55.5-55.9 °C	2.11	2.11	passed
F/C=C\C(F)(C(F)(F)F)C(F)(F)C(F)(F)F (stereo not drawn) [cis-secBuFO, cis-1,3,4,4,5,5,5-heptafluoro-3-(trifluoromethyl)pent-1-ene]	79.27 °C	79.27 °C	6.48	6.48	–
F/C=C/C(C(F)(F)F)(C(F)(F)F)C(F)(F)F [trans-tBuFO, trans-1,4,4,4-tetrafluoro-3,3-bis(trifluoromethyl)but-1-ene]	57.9 °C	57.9 °C	2.15	2.15	–
F/C=C\C(C(F)(F)F)(C(F)(F)F)C(F)(F)F [cis-tBuFO, cis-1,4,4,4-tetrafluoro-3,3-bis(trifluoromethyl)but-1-ene]	76.19 °C	76.19 °C	6.51	6.51	–
